Converted amounts (≈) assume the structure as drawn.
Assays:
[1] = United States Pharmacopoeia classification "practically insoluble"; cited from earlier work
[2] = Budesonide solubility in saline; format: physicochemical; details: saline or isotonic, thermodynamic from solid, 37° C., read-out: saturation solubility in saline
Description: The maximum solubility of budesonide in saline was determined as described (Gennaro A R, editor. Remington: The Science and Practice of Pharmacy. 20th ed. Philadelphia, Pa.: Lippincott Williams & Wilkins, 2000, which is incorporated herein by reference). First, increasing amounts of budesonide were mixed with saline to provide budesonide concentration in the system from 25 mg/ml to 0.002 mg/ml. The mixtures were constantly stirred at 37° C. for 24 hours, and then centrifuged at 12,000 rpm for 5 minutes to separate the solution phase from the solid phase. The budesonide concentrations in the solution phase were measured by High Performance Liquid Chromatography (HPLC). The saturation solubility of budesonide in saline was determined by extrapolating the line segment, of which slope was 0, to y-axis.
In a separate experiment, budesonide-saline 0.13 mg/ml was prepared as described above, divided into 1 ml aliquots, and incubated at 37° C. with constant stirring. At timed intervals, an aliquot of budesonide-saline was taken and centrifuged at 12,000 rpm for 5 minutes to separate 0.8 ml of supernatant for HPLC analysis. The remaining 0.2 ml, potentially containing precipitated budesonide, was dissolved in 0.8 ml acetonitrile and analyzed with HPLC. […]

[3] = tested on: TNF-α production by primary mouse macrophages; experiment: TNF-α production by LPS-challenged macrophages; format: cell-based, mouse (C57/B16); details: macrophages stimulated with LPS
Description: (§1) C57/B16 mice were purchased from Taconic (Hudson, N.Y.). 2 ml of 3% (w/v) sterile thioglycollate solution (DIFCO Laboratories, Detroit, Mich.) was injected into the peritoneal cavity. Four days after injection, the mice were euthanized by CO2, and 6 ml of ice-cold PBS buffer containing 5 mM EDTA was injected. After agitating the peritoneum with forceps, a macrophage-containing solution was aspirated. The cells were placed immediately into iced DMEM on ice prior to washing, counting and plating. Approximately 10^7 cells per mouse were obtained.
(§2) Non-adherent cells were removed by washing with 200 μl/well PBS buffer. Then 100 μl of DMEM with 10% FBS and 100 μl of medium pre-incunated with hydrogels (Sec. 2.2.9), or known concentrations of dexamethasone, were added to the adherent macrophages in each well. After incubation for 24 h at 37° C. in 5% CO2, 25 μl of 900 ng/ml of LPS (Sigma, St. Louis, Mo.; Catalog #L-4391) was added to each well to a final concentration of 100 ng/ml. After incubation for a further 16 h, the media were collected and stored at −80° C. until analyzed. The concentration of TNF-α, IL-6, and dexamethasone in those media were measured by ELISA (enzyme-linked immunosorbent assay). The ELISA kits for TNF-α, IL-6, and dexamethasone were purchased from R&D Systems (DuoSet, Cat DY406), BioLegend (Mouse IL-6 ELISA MAX™ Set (Deluxe)), and Neogen Corporation, respectively.

[4] = tested on: IL-6 production by primary mouse macrophages; experiment: IL-6 production by LPS-challenged macrophages; format: cell-based, mouse (C57/B16); details: macrophages stimulated with LPS
Description: as §1, §2

[5] = tested on: Human mesothelial cells (ATCC, CRL-9444)
Description: In vitro cell viability assay: Human mesothelial cells (ATCC, CRL-9444) were cultured in Medium 199, containing Earle's salts, L-glutamine, and 2.2 g/L sodium bicarbonate and supplemented with 3.3 nM epidermal growth factor, 400 nM hydrocortisone, 870 nM insulin, 20 mM HEPES, and 10% fetal bovine serum. Cells from passage 5 through 25 were used for the following studies. Mesothelial cells were seeded into 24-well plates at a density of 50,000 cells per well in 1 ml of culture medium. […] After varying periods of incubation in the presence of the hydrogels, cell viability was assessed with an MTT assay kit (Promega CellTiter 96 Non-Radioactive Cell Proliferation Assay).
Cell proliferation assay. […] After varying periods of incubation in the presence of the hydrogels, cell viability was assessed with an MTT assay kit (Promega CellTiter 96 Non-Radioactive Cell Proliferation Assay).
Mesothelial cells were grown and maintained in a complete growth medium (GIBCO: Medium199 with Earle's BSS, 0.75 mM L-glutamine and 1.25 g/L sodium bicarbonate supplemented with 3.3 nM epidermal growth factor, 400 nM hydrocortisone, 870 nM insulin, 20 mM HEPES and 10% fetal bovine serum) at 37° C. in 5% CO2. […] The purple formazan produced by active mitochondria was solubilized using 1 ml detergent solution and then read at 570 nm by plate reader (Molecular Devices: SpectraMax 384, Union City, Calif.). […]

peritoneal adhesions = details: 1 week after second laparotomy
Description: Repeated laparotomy model. Female albino rabbits (Oryctolagus cuniculus; New Zealand White) (3±0.5 kg) were used. The first laparotomy and post-operation care were performed as described above. A 2nd laparotomy was performed after 1 week. On examination prior to the 2nd laparotomy, animals were excluded from the 2nd laparotomy for the following: (i) loss of more than 15% of body weight since the 1st laparotomy; (ii) poor feeding. On laparotomy, adhesions were scored as previously then lysed (cut). The previously excised abdominal wall was re-abraded 50 times unidirectionally, and the cecum surface between 6-12th haustra was re-abraded 150-200 times bidirectionally using a sterile brush until a bleeding bed was obtained.
Thirty animals were assigned randomly to experimental groups and test materials were applied on the injured areas. The operator was blinded as to the nature of the materials. HA-ADH and HA-CHO were sterilized by germicidal UV illumination for 2 hours and dissolved in 5 ml sterile saline, respectively. Ten ml of gel were applied on the injured sites with a dual valve applicator as previously. As controls, a group of animals received no treatment, and another group received 10 ml saline.
After treatment of the injured areas, the peritoneum and abdominal wall were closed with 2-0 Ethilon and 3-0 Dexon, respectively. The skin was closed with 2-0 Ethilon. Animals were allowed to awaken and had food and water ad libitum. Buprenorphine 0.02-0.03 mg/kg was administered sc 8-12 hours interval until 48 hours post-surgery. The animals were sacrificed 1 week after the second laparotomy by intravenous injection of sodium pentobarbital. Adhesions were scored in two ways. (i) Quality of adhesions was scored as follows: Adhesions were scored using a modification of a reported method (Burns J W, Skinner K, Colt J, Sheidlin A, Bronson R, Yaacobi Y, et al. Prevention of tissue injury and postsurgical adhesions by precoating tissues with hyaluronic acid solutions. Journal of Surgical Research 1995;59:644-652, which is incorporated herein by reference). Score 0=no adhesion, score 1=tissue adherence that would separate with gravity, score 2=tissue adherence separable by blunt dissection, score 3=adhesion requiring sharp dissection. If there were multiple adhesions of different scores, we chose the higher one as a representative score. (ii) Area of score 2 or 3 adhesions was measured for quantitative evaluation of the adhesions. The location of adhesions (whether they include suture sites or not; location and number of cecal haustra involved in the adhesion) and weight changes were recorded. Tissues recovered from the necropsy were fixed in 10% formalin, embedded in paraffin, sectioned, and stained with hematoxylin and eosin for histological examination.
Peritoneal adhesions were induced in female albino rabbits (Oryctolagus cuniculus; New Zealand White) (3±0.5 kg) through repeated laparotomies as described in our previous study [tPA]. Briefly, cecum abrasion and excision of abdominal wall were performed to induce de novo adhesions (Yeo et al. In situ cross-linkable hyaluronic acid hydrogels prevent post-operative abdominal adhesions in a rabbit model. Biomaterials 2006;27:4698-4705, which is incorporated herein by reference). A second laparotomy was performed after 1 week to cut the adhesions and introduce additional injuries to the same locations as those injured in the first laparotomy. […]

For `CCCC1O[C@@H]2C[C@H]3[C@@H]4CCC5=CC(=O)C=C[C@]5(C)[C@H]4[C@@H](O)C[C@]3(C)[C@]2(C(=O)CO)O1` (some centres unmarked) [Budesonide], the solubility in water [1] is given as < 100 µg/mL and the solubility at 24 h [2] is given as 27 µg/mL (≈ 62.7 µM).

With `C[C@@H]1C[C@H]2[C@@H]3CCC4=CC(=O)C=C[C@]4(C)[C@@]3(F)[C@@H](O)C[C@]2(C)[C@@]1(O)C(=O)CO` [Dexamethasone] the “concentrations with no effect on production of TNF-α” value [3] was “lower than 10^−9 M” and the “concentrations with no effect on production of IL-6” value [4] was “lower than 10^−9 M”.

In the case of HA-adipic dihydrazide [HA-ADH], the “effect of polymers on mesothelial cell viability (MTT)” value [5] is reported as “small reductions in cell viability”.

With “hyaluronic acid [HA, reference compound]” the “effect of polymers on mesothelial cell viability (MTT)” value [5] was “small reductions in cell viability”.

With “tPA: bolus of tPA solution (2.2 mg Activase) in the absence of HAX” the “Qualitative (score) % frequency, score 0” value (peritoneal adhesions; 10 ml applied on injured sites) was 25%, the “Qualitative (score) % frequency, score 1” value (peritoneal adhesions; 10 ml applied on injured sites) was 0% and the “Qualitative (score) % frequency, score 2” value (peritoneal adhesions; 10 ml applied on injured sites) was 0%. For the same compound, the “Qualitative (score) % frequency, score 3” value (peritoneal adhesions; 10 ml applied on injured sites) was 75% and the “Quantitative (adhesion area), median” value (peritoneal adhesions; area of score 2 or 3 adhesions) was 2.4 cm^2.

Source: patent US20080069857A1, “Compositions And Methods For Inhibiting Adhesions” (priority 2006, published 2008)
